# Columns and labels:
# [1] = system: homologous recombination deficiency / carboplatin sensitivity genes in OvCar3 cells; test: Nanostring PanCancer Pathways mRNA, OvCar3; assay type: cell-based; settings: 50 nM, 16 hours
# Experimental: Ovarian Cell lines OvCar3, TOV21G, A2780 and COV318 were plated at 500,000 cells/well in a 6-well plate the day before treatment. The next day the cells were treated with vehicle or 50 nM Compound 1 for 0, 6, or 16 hours after which cells were harvested and total RNA collected using RNeasy mini kit (Qiagen). Changes in mRNA between samples were analyzed with Nanostring™ PanCancer Pathways Panels specifically analyzing genes related to homologous recombination deficiency and carboplatin sensitivity (ie. BRCA1, BRCA2, Rad51, ATM, ATR, MSH2, MSH6). Nanostring signal intensities were first normalized to housekeeping genes across all cell lines, and then normalized to the 0 hour timepoint within a cell line.
# [2] = system: MCL1 protein in OCI-AML3 cells; test: Western blot, AML cell line OCI-AML3; assay type: cell-based; settings: 50 nM
# Experimental: (§1) Cytotoxic cancer cell lines HCC70 and TOV21G, and cytostatic cancer cell lines T47D and COV318 were seeded in wells of a six-well dish at a density of 1×10^6 cells/well and allowed to adhere overnight. Cells were then treated with 50 nM of Compound 1 for 16 or 24 hours, or with DMSO (0 hours) representing a negative control. Cells were harvested and placed on ice, and resuspended in RIPA lysis buffer supplemented with protease and phosphatase inhibitors. Clarified lysates prepared with 4×LSD running buffer and boiled at 95° C. for 5 minutes. Equivalent amounts of sample (10 μg total protein) were run on a 4-12% Bis-Tris gel and transferred to a PDVF membrane for Western blotting using standard Western blotting protocols. Membranes were blocked with Licor TBS blocking buffer then probed with antibodies for BCL-XL, BCL-2, MCL1, BID, and GAPDH visualized using and Odyssey imager (FIGS. 23A and 23D).
# (§2) We next explored the expression of MCL1, BCL-XL and BCL2 in four different AML cell lines. MV411, OCI-AML3 and KG1 cells were separately grown and prepared as described in Example 2 for Western blotting, using antibodies specific for BCL2 (FIG. 24A), BCL-XL, MCL-1 and tubulin as an internal control (FIG. 24B).
# [3] = system: Rad51, CHEK1 and CHEK2 RNA in THP1 cells; test: Microarray RNA levels of DNA damage repair genes, THP1; assay type: cell-based; settings: THP1 AML cells; 100 nM, 6 hrs
# Experimental: THP1 is an AML cell line. THP1 cells (1×10^6/well) were plated in 6-well plates and treated with vehicle (DMSO), 100 nM Compound 1, 25 nM NVP2 (a CDK9 inhibitor), 250 nM JQ1 (a BRD4 inhibitor) or 200 nM Flavopiridol (a pan-CDK inhibitor) for 6 hrs, after which cells were harvested and total RNA (1,000 ng) isolated. RNA levels of the DNA damage repair genes Rad51, CHEK1 and CHEK2 were analyzed by microarray. Experiments were done in triplicates. We performed RMA normalization of the data using the “affy” package from Bioconductor. The command used is shown below and includes background correction, normalization and summarization:
# Next, we performed loess normalization using only spike-ins to enable comparison of expression values across multiple samples.
# HR^+ breast cancer cells = test: Inhibition of HR^+ breast cancer cells in vitro (data not shown); assay type: cell-based; settings: including cells with acquired resistance to aromatase inhibitors and cells no longer responding to CDK4/6 inhibitors
# [4] = system: MCL1 protein in HCC70 cells; test: Western blot of BCL2 family proteins, HCC70; assay type: cell-based, human; settings: 50 nM or 100 nM, 24 hours
# Experimental: as §1
# In a similar experiment, TNBC breast cancer cell lines HCC70, MDAMB468, MDAMB453 and CAL-120 were grown as described above and treated with DMSO, 50 nM Compound 1 or 100 nM Compound 1 for 24 hours. Protein samples were prepared as described above for Western blotting using antibodies specific for the indicated proteins in FIG. 29A. […]
# BR5010 xenografts = test: TNBC patient-derived xenograft BR5010, tumor volume; assay type: in vivo, mouse; settings: 40 mg/kg or 30 mg/kg i.v. BIW
# Experimental: Patient-derived xenograft (PDX) models from TNBC patients (BR5010, BR5013, BR5015, and BR5023) were established in NOD-SCID mice at Crown Bioscience (San Diego, USA). Cryo vials containing tumor cells were thawed and prepared for injection into mice. Cells were washed in PBS, counted, and resuspended in cold PBS at a concentration of 50,000-100,000 viable cells/100 ul. Cell suspensions were mixed with an equal volume of Cultrex ECM and kept on ice during transport to the vivarium. Cells were prepared for injections by withdrawing ECM-Cell mixture into a chilled slip-tip syringe fitted with a 26G 7/8 (0.5 mm×22 mm) needle. The filled syringes were kept on ice to avoid the solidification of ECM. Each mouse was inoculated subcutaneously in the right flank with 200 uL of the cell suspension. Tumor sizes were measured in two dimensions using a caliper, and the volumes were expressed in mm^3 using the formula: V=0.5 a×b^2, where a and b are the longest and shortest diameters of the tumor, respectively. Compound 1 treatment was started when the average tumor size reached 150-200 mm^3.
# Compound 1 was formulated in w/v 20% Captisol (pH 4-6) and administered by i.v. twice weekly (BIW) at a final dose of 40 mg/kg or 30 mg/kg in a 10 ml/kg volume. Tumor volumes were measured twice weekly over the course of the study. […]
# [5] = system: MCL1 protein in OC1M1 cells; test: Western blot, AML cell line OC1M1; assay type: cell-based; settings: OC1M1 (high BCL-XL); 50 nM
# Experimental: as §1, §2
smiles,measurement,setting,value
"CN(C)C/C=C/C(=O)Nc1ccc(C(=O)N[C@@]2(C)CCC[C@@H](Nc3ncc(Cl)c(-c4c[nH]c5ccccc45)n3)C2)nc1 [Compound 1, N-((1S,3R)-3-(5-chloro-4-(1H-indol-3-yl)pyrimidin-2-ylamino)-1-methylcyclohexyl)-5-((E)-4-(dimethylamino)but-2-enamido)picolinamide]","mRNA of genes related to homologous recombination deficiency and carboplatin sensitivity, all genes except Rad51 (BRCA1, BRCA2, ATM, ATR, MSH2, MSH6)",[1],downregulated
same,MCL1 protein level (Western blot),[2],significant reduction in MCL1
same,"mRNA expression from genes involved in DNA repair (Rad51, CHEK1, CHEK2)",[3],Downregulation
same,Inhibition of HR^+ breast cancer cells in vitro,HR^+ breast cancer cells,inhibits many HR^+ breast cancer cells in vitro
same,MCL1 protein level (Western blot),[4],downregulated
same,Tumor growth vs untreated historical samples,BR5010 xenografts,consistently inhibited tumor growth
same,MCL1 protein level (Western blot),[5],little effect
